Test results from ChEMBL document CHEMBL5226325, “Optimization of a Screening Hit toward M2912, an Oral Tankyrase Inhibitor with Antitumor Activity in Colorectal Cancer Models” (J Med Chem, 2021).
The source made the active and inactive calls. No cut-off for these calls is given here.

Assays:
[1] = Modulation of Wnt/beta-catenin signaling pathway in human DLD-1 cells assessed as induction of AXIN2 accumulation incubated for 24 hrs by ELISA; format: cell-based; conditions: DLD-1, 24 h
[2] = target: T1, Poly [ADP-ribose] polymerase tankyrase-2 (Homo sapiens, UniProt Q9H2K2); assay: Inhibition of TNKS2 (unknown origin) using biotinylated NAD as substrate assessed as inhibition of autoPARsylation activity incubated for 1 hr by ELISA
T1 sequence (Q9H2K2 whole entry): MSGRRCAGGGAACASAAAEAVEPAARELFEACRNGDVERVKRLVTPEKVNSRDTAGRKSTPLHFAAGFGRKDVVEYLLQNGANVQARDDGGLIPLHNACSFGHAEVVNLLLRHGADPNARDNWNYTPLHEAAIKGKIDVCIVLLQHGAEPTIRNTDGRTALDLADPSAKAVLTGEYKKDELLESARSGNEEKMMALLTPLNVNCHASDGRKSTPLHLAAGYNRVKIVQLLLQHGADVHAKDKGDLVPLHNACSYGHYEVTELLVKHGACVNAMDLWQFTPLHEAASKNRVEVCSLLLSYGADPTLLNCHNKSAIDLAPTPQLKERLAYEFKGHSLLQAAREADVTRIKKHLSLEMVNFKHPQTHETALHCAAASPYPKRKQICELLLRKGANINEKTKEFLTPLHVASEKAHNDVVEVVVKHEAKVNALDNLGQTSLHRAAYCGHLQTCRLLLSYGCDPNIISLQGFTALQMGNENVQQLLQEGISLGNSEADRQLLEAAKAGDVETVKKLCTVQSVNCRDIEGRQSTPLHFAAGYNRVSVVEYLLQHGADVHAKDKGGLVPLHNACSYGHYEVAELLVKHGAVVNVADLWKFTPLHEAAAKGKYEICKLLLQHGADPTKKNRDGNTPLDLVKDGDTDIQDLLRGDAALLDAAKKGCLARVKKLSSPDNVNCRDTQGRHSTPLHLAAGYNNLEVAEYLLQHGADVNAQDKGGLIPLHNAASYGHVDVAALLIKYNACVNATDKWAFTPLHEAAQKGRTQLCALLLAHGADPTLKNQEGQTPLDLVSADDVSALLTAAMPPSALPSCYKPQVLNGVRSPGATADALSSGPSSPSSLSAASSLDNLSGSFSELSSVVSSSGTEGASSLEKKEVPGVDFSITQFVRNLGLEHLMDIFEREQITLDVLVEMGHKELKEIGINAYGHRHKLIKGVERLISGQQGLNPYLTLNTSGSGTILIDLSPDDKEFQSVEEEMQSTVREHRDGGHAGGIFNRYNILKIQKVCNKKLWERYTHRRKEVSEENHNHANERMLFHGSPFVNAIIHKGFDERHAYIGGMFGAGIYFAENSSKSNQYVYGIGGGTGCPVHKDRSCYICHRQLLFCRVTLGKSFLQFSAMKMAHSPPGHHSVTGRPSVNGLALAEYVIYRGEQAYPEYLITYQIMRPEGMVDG

[3] = target: Poly [ADP-ribose] polymerase 1 (Homo sapiens, UniProt P09874); assay: Inhibition of PARP-1 (unknown origin) using biotinylated NAD and NAD as substrate assessed as inhibition of auto-PARsylation incubated for 150 mins by TR-FRET assay
[4] = target: T1, Poly [ADP-ribose] polymerase tankyrase-2; assay: Inhibition of TNKS2 (unknown origin)
[5] = target: Poly [ADP-ribose] polymerase 2 (Homo sapiens, UniProt Q9UGN5); assay: Inhibition of N-terminal GST-tagged human recombinant PARP2 (2 to 583 residues) expressed in baculovirus infected Sf9 insect cells by chemiluminescence assay
[6] = target: Protein mono-ADP-ribosyltransferase PARP14 (Homo sapiens, UniProt Q460N5); assay: Inhibition of N-terminal GST/6xHis/TEV-tagged human recombinant PARP14 (1470 to 1801 residues) expressed in Sf9 insect cells by chemiluminescence assay
[7] = system: SW480; assay: Cytotoxicity against human SW480 cells assessed as reduction in cell growth at 0.01 to 10 uM incubated for 14 days by resazurin dye based assay; format: functional; conditions: dose 0.01-10 µM, time 14.0 day
[8] = target: Sodium-dependent dopamine transporter (Homo sapiens, UniProt Q01959); assay: Inhibition of dopamine transporter (unknown origin); format: toxicity
[9] = target: Adenosine receptor A3 (Homo sapiens, UniProt P0DMS8); assay: Inhibition of A3 adenosine receptor (unknown origin); format: toxicity
[10] = Unbound fraction in mouse plasma; format: ADME, cell-free
[11] = Unbound fraction in dog plasma; format: ADME, cell-free, Canis lupus familiaris
[12] = Unbound fraction in human plasma; format: ADME, cell-free
[13] = Volume of distribution at steady state in dog; format: ADME, Canis lupus familiaris; conditions: in vivo, read-out: Vdss
[14] = Volume of distribution at steady state in monkey; format: ADME, Macaca mulatta; conditions: rhesus monkey, in vivo; read-out: Vdss
[15] = Hepatic blood flow in mouse; format: ADME, organism-based
[16] = Half life in mouse; format: ADME, organism-based; conditions: in vivo
[17] = Half life in dog; format: ADME, Canis lupus familiaris; conditions: in vivo
[18] = Half life in human; format: ADME
[19] = Oral bioavailability in rat; format: ADME, organism-based; conditions: in vivo
[20] = In vivo inhibition of Wnt pathway in Hsd athymic nude mouse xenografted with human DLD1 cells assessed as increase in tankyrase protein level in tumor at 10 to 30 mg/kg, po administered as single dose and measured after 2 to 8 hrs; format: functional, organism-based; conditions: DLD-1, dose 10-30 mg/kg, time 2-8 hrs
[21] = In vivo inhibition of Wnt pathway in Hsd athymic nude mouse xenografted with human DLD1 cells assessed as increase in axin2 protein level in tumor at 10 to 30 mg/kg, po administered as single dose and measured after 2 to 8 hrs; format: functional, organism-based; conditions: DLD-1, dose 10-30 mg/kg, time 2-8 hrs

Chain of Adenosine receptor A3 (P0DMS8 whole entry): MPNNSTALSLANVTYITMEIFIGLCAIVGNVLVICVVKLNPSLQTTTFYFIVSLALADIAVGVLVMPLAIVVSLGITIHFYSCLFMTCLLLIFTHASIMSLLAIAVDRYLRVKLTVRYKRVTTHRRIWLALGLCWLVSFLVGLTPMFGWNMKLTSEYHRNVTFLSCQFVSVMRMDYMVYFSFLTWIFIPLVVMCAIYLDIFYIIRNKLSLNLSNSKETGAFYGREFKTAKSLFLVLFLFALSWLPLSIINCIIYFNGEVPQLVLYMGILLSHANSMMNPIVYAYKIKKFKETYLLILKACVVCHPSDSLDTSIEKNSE
Chain of Sodium-dependent dopamine transporter (Q01959 whole entry): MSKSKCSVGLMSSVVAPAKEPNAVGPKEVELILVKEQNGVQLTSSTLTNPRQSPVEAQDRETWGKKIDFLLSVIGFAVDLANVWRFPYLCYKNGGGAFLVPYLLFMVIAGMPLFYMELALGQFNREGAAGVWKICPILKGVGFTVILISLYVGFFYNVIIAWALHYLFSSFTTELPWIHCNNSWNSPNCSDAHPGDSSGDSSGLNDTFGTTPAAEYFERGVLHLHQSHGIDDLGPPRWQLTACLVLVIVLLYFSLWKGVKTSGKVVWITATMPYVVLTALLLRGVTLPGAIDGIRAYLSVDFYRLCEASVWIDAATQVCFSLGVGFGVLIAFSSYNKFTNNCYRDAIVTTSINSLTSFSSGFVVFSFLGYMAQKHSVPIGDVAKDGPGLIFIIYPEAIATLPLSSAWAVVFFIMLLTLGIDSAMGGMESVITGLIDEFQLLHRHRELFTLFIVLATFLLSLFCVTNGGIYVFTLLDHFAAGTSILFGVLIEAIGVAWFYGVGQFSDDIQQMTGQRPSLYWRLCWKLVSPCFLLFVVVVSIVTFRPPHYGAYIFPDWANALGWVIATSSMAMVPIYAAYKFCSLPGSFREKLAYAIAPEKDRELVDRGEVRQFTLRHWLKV
Chain of Poly [ADP-ribose] polymerase 2 (Q9UGN5 whole entry, the tested form may be a part): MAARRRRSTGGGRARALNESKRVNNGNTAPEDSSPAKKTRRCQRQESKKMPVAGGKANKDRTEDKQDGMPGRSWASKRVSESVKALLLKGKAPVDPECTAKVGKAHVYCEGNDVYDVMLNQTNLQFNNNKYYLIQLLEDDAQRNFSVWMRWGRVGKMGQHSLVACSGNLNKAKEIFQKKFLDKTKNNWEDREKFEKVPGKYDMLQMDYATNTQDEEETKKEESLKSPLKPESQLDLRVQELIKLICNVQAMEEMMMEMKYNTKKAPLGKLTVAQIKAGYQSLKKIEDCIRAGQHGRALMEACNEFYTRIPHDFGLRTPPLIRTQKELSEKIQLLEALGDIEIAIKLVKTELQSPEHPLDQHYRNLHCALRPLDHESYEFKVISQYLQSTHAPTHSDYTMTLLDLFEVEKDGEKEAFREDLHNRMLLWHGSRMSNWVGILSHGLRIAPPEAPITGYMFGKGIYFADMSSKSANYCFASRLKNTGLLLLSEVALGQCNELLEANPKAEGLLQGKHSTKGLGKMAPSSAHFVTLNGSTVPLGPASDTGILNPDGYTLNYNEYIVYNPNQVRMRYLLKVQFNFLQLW
Chain of Protein mono-ADP-ribosyltransferase PARP14 (Q460N5 whole entry, the tested form may be a part): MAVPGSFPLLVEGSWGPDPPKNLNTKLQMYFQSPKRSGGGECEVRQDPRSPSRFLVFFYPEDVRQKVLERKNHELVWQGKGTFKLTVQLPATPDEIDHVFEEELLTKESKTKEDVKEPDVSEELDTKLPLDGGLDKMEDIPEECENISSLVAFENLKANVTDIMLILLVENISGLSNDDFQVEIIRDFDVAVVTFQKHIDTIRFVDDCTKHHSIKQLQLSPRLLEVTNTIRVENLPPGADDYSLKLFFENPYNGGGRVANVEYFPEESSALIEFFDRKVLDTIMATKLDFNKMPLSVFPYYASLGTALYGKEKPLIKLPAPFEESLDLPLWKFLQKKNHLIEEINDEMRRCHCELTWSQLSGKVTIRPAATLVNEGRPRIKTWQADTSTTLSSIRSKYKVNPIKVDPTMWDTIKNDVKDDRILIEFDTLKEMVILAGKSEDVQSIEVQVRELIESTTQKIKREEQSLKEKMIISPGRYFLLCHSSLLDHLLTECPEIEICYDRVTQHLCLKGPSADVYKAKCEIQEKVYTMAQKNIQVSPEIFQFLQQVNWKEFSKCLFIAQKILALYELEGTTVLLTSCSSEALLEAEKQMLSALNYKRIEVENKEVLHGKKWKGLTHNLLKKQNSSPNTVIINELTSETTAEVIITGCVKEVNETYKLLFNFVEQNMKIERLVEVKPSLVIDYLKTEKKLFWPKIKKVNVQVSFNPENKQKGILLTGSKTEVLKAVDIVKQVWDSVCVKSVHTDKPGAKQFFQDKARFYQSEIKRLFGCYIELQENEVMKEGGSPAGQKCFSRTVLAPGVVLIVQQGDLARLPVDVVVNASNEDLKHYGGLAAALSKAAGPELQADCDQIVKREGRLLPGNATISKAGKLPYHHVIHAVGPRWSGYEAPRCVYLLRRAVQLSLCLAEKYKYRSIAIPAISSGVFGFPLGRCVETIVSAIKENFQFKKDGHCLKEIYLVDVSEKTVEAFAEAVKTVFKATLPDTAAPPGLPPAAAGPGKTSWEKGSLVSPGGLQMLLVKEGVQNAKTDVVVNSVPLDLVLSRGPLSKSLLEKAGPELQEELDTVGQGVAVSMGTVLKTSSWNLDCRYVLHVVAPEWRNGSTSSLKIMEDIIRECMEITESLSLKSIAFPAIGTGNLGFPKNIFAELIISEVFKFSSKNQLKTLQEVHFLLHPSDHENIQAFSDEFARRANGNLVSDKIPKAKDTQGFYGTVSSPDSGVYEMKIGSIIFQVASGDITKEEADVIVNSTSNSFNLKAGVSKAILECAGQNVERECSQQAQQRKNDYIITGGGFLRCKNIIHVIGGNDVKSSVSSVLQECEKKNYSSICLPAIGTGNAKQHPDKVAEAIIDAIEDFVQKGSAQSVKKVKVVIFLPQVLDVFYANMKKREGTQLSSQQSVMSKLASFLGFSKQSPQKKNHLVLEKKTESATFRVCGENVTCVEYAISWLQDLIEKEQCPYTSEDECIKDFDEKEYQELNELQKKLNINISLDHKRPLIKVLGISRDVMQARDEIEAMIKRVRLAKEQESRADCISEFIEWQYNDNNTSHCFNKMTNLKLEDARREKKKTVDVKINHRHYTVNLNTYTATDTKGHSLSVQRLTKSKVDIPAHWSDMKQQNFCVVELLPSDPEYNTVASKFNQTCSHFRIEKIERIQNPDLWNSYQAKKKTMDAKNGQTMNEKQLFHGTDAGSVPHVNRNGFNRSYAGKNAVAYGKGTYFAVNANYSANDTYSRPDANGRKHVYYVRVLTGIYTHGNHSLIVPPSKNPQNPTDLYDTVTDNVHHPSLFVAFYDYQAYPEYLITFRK
Chain of Poly [ADP-ribose] polymerase 1 (P09874 whole entry): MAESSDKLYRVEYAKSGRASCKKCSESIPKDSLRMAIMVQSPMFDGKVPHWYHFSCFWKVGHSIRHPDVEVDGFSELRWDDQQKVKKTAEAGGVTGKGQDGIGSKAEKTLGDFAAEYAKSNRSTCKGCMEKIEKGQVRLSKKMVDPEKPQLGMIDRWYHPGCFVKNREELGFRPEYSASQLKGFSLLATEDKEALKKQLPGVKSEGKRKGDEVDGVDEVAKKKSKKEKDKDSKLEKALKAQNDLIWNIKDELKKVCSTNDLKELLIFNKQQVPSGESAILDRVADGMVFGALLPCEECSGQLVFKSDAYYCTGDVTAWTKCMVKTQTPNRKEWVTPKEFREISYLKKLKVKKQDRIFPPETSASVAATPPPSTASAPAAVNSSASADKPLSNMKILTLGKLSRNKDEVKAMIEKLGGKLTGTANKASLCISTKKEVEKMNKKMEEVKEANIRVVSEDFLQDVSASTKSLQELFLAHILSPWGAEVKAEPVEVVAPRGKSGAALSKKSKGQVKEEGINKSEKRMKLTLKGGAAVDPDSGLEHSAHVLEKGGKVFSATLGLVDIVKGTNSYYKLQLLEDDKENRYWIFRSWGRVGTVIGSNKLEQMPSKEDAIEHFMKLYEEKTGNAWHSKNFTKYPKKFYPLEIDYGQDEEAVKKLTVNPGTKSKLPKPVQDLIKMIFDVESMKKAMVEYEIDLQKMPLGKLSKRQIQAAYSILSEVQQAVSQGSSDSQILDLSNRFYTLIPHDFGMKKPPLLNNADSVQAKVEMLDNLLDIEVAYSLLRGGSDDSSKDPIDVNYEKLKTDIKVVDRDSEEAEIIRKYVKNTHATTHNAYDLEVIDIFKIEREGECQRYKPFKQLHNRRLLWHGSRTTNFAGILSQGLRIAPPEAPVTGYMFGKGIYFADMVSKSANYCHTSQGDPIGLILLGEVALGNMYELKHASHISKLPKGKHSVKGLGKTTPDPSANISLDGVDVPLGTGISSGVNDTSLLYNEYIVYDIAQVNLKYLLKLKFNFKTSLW

For `Cc1ccc2c(=O)[nH]c(-c3ccc(C(C)(C)O)cc3)cn12`, the EC50 [1] was 16 nM, the IC50 [2] was 0.9 nM and the IC50 [3] was 928 nM. For the same molecule, the IC50 [4] was 1.4 nM, the IC50 [5] was 200 nM and the IC50 [6] was > 10000 nM. The Activity [7] was “inactive”, the IC50 [8] was 19000 nM and the IC50 [9] was 10000 nM. The fraction unbound [10] was 0.16, the fraction unbound [11] was 0.14 and the fraction unbound [12] was 0.096. It also gave a Vd [13] of 2.17 L/kg, a Vd [14] of 3.15 L/kg and a QH [15] of 50%. The half-life [16] was 58.6 min, the half-life [17] was 35.6 min and the half-life [18] was 414 min. For the same molecule, the bioavailability [19] was 41%, the inhibition [20] was “Active” and the inhibition [21] was “Active”.
